Results reported in patent publication US20050245563A1 (Millennium Pharmaceuticals, Inc., priority 2003, published 2005).
Structures can show the parent of a compound that is named as a salt.

target: T1, human Chk1 (GST-Chk1) (Homo sapiens, UniProt O14757); assay: Chk1 DELFIA kinase assay (2 nM GST-Chk1, 600 μM ATP); assay type: biochemical; details: Biotin-GLYRSPSMPEN-amide substrate
T1 construct: made in house; host or cells: insect cells (baculovirus, Bac-to-Bac)
T1 sequence (O14757 1-476): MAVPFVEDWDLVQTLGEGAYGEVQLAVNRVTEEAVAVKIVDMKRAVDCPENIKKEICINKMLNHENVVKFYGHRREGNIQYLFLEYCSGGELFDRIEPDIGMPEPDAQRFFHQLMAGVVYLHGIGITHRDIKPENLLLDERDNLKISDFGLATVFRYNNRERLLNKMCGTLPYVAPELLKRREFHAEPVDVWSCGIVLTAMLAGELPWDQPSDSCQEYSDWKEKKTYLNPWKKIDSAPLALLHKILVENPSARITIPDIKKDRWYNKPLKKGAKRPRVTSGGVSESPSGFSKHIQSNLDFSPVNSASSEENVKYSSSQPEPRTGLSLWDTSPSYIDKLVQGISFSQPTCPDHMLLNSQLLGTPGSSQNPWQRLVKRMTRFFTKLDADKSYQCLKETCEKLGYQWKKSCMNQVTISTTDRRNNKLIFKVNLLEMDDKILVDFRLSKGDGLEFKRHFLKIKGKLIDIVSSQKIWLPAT
Outline: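 Enzyme is N-terminal GST-Chk1 from baculovirus/insect cells, assayed with 1 μM biotin-GLYRSPSMPEN-amide in pH 7.5 Tris buffer, 4% DMSO and 10 mM MgCl2 for 50 min at room temperature. EDTA-stopped reactions were captured on NeutrAvidin. Phospho-peptide was detected by anti-phospho-Ser216-Cdc25c antibody with europium-labeled secondary and time-resolved fluorescence.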

IC50	Structure (SMILES)
< 1000 nM	Cc1[nH]nc2c1c(=O)n(C)c1c(CCCO)cc(Cl)cc21 [Example 367, 8-Chloro-6-(3-hydroxy-propyl)-3,5-dimethyl-2,5-dihydro-pyrazolo[4,3-c]quinolin-4-one]
< 1000 nM	CCN(CC)CCC(=O)Nc1ccc2c(c1)c1n[nH]c(C)c1c(=O)n2CCCN [Example 368, N-[5-(3-Amino-propyl)-3-methyl-4-oxo-4,5-dihydro-2H-pyrazolo[4,3-c]quinolin-8-yl]-3-diethylamino-propionamide]
< 1000 nM	Cc1[nH]nc2c1c(=O)n(CCCN)c1ccc(NC(=O)CCN3CCCCC3)cc21 [Example 369, N-[5-(3-Amino-propyl)-3-methyl4-oxo-4,5-dihydro-2H-pyrazolo[4,3-c]quinolin-8-yl]-3-piperidin-1-yl-propionamide]

target: T1, human Chk1 (GST-Chk1); assay: Chk1 FlashPlate kinase assay; assay type: biochemical; details: 8.7 nM GST-Chk1, 1 uM ATP, 33P incorporation into peptide substrate
Procedure: Recombinant human Chk1 was expressed as a fusion protein with glutathione S-transferase at the amino-terminus (GST-Chk1) using standard baculovirus vectors and (Bac-to-Bac®) insect cell expression system purchased from GIBCO™ Invitrogen. Recombinant protein expressed in insect cells was purified using glutathione sepharose (Amersham Biotech) using standard procedures described by the manufacturer.
Chk1 FlashPlate® Kinase Assay:
Assays (25 μL) contained 8.7 nM GST-Chk1, 10 mM MES, 0.1 mM ethylene glycol-bis(β-aminoethylether)-N,N,N′,N′-tetracetic acid (EGTA, pH 8.0), 2 mM DTT, 0.05% Tween 20, 3 uM peptide substrate (Biotin-ILSRRPSYRKILND-free acid) (SEQ ID NO: 1), 1 uM ATP, 0.4 uCi ^33P-γ-ATP (NEN), 4% DMSO. Reactions were incubated for 30 minutes at room temperature, terminated with 50 μL of 50 mM EDTA and 90 μL were transferred to streptavidin-coated FlashPlates® (NEN) and incubated for 1 hour at room temperature. Plates were washed with phosphate buffered salaine containing 0.01% Tween-20 and 10 mM sodium pyrophosphate. Plates were dried, sealed with Topseal™ (NEN) and amount of ^33P incorporated into the peptide substate measure using a Packard Topcount® NXT™ scintillation counter with standard settings.

IC50	Structure (SMILES)
1000 to 20000 nM	Cc1n[nH]c2c1c(=O)n(CCNC(=O)OC(C)(C)C)c1ccccc21 [Example 1, [2-(3-Methyl-4-oxo-1,4-dihydro-pyrazolo[4,3-c]quinolin-5-yl)-ethyl]-carbamic acid tert-butyl ester]
1000 to 20000 nM	Cc1n[nH]c2c1c(=O)n(Cc1cccnc1)c1ccccc21 [Example 2, 3-Methyl-5-pyridin-3-ylmethyl-1,5-dihydro-pyrazolo[4,3-c]quinolin-4-one]
1000 to 20000 nM	CC(=O)OCCn1c(=O)c2c(C)n[nH]c2c2ccccc21 [Example 3, Acetic acid 2-(3-methyl-4-oxo-1,4-dihydro-pyrazolo[4,3-c]quinolin-5-yl)-ethyl ester]
< 1000 nM	Cc1n[nH]c2c1c(=O)n(CCNCc1ccccc1)c1ccccc21 [Example 4, 5-(2-Benzylamino-ethyl)-3-methyl-1,5-dihydro-pyrazolo[4,3-c]quinolin-4-one]
< 1000 nM	Cc1n[nH]c2c1c(=O)n(CCCNCc1ccccc1)c1ccccc21 [Example 5, 5-(3-Benzylamino-propyl)-3-methyl-1,5-dihydro-pyrazolo[4,3-c]quinolin-4-one]
< 1000 nM	Cc1n[nH]c2c1c(=O)n(CCCNC(=O)OC(C)(C)C)c1ccccc21 [Example 6, [3-(3-Methyl-4-oxo-1,4-dihydro-pyrazolo[4,3-c]quinolin-5-yl)-propyl]-carbamic acid tert-butyl ester]
1000 to 20000 nM	Cc1n[nH]c2c1c(=O)n(CCN(C)C)c1ccccc21 [Example 7, 5-(2-Dimethylamino-ethyl)-3-methyl-1,5-dihydro-pyrazolo[4,3-c]quinolin-4-one hydrochloride]
1000 to 20000 nM	Cc1n[nH]c2c1c(=O)n(CCN1CCOCC1)c1ccccc21 [Example 8, 3-Methyl-5-(2-morpholin-4-yl-ethyl)-1,5-dihydro-pyrazolo[4,3-c]quinolin-4-one]
< 1000 nM	Cc1n[nH]c2c1c(=O)n(CCO)c1ccccc21 [Example 10, 5-(2-Hydroxy-ethyl)-3-methyl-1,5-dihydro-pyrazolo[4,3-c]quinolin-4-one]
< 1000 nM	Cc1n[nH]c2c1c(=O)n(CCN)c1ccccc21 [Example 11, 5-(2-Amino-ethyl)-3-methyl-1,5-dihydro-pyrazolo[4,3-c]quinolin-4-one]
< 1000 nM	Cc1n[nH]c2c1c(=O)n(CCCOCc1ccccc1)c1ccccc21 [Example 12, 5-(3-Benzyloxy-propyl)-3-methyl-1,5-dihydro-pyrazolo[4,3-c]quinolin-4-one]
< 1000 nM	Cc1n[nH]c2c1c(=O)n(CCCNC(=O)OCc1ccccc1)c1ccccc21 [Example 13, [3-(3-Methyl-4-oxo-1,4-dihydro-pyrazolo[4,3-c]quinolin-5-yl)-propyl]-carbamic acid benzyl ester]
< 1000 nM	Cc1n[nH]c2c1c(=O)n(CCCO)c1ccccc21 [Example 14, 5-(3-Hydroxy-propyl)-3-methyl-1,5-dihydro-pyrazolo[4,3-c]quinolin-4-one]
< 1000 nM	Cc1n[nH]c2c1c(=O)n(CCCN)c1ccccc21 [Example 15, 5-(3-Amino-propyl)-3-methyl-1,5-dihydro-pyrazolo[4,3-c]quinolin-4-one]
< 1000 nM	COC(=O)CCCn1c(=O)c2c(C)n[nH]c2c2cc(Br)ccc21 [Example 17, 4-(8-Bromo-3-methyl-4-oxo-1,4-dihydro-pyrazolo[4,3-c]quinolin-5-yl)-butyric acid methyl ester]
> 20000 nM	Cc1[nH]nc2c1c(=O)[nH]c1c(OCCCNC(=O)OC(C)(C)C)cccc12 [Example 24, [3-(3-Methyl-4-oxo-4,5-dihydro-2H-pyrazolo[4,3-c]quinolin-6-yloxy)-propyl]-carbamic acid tert-butyl ester]
< 1000 nM	Cc1n[nH]c2c1c(=O)n(CCCCNC(=O)OC(C)(C)C)c1ccc(Br)cc21 [Example 29, [4-(8-Bromo-3-methyl-4-oxo-1,4-dihydro-pyrazolo[4,3-c]quinolin-5-yl)-butyl]-carbamic acid tert-butyl ester]
1000 to 20000 nM	Cc1n[nH]c2c1c(=O)n(CC1CCCN(C(=O)OC(C)(C)C)C1)c1ccc(Br)cc21 (stereo not drawn) [Example 30, 3-(8-Bromo-3-methyl-4-oxo-1,4-dihydro-pyrazolo[4,3-c]quinolin-5-ylmethyl)-piperidine-1-carboxylic acid tert-butyl ester]
< 1000 nM	Cc1n[nH]c2c1c(=O)n(CCCNC(=O)OC(C)(C)C)c1ccc(Cl)cc21 [Example 31, [3-(8-Chloro-3-methyl-4-oxo-1,4-dihydro-pyrazolo[4,3-c]quinolin-5-yl)-propyl]-carbamic acid tert-butyl ester]

The next lines start with the molecule.

Structure (SMILES)	IC50
Cc1n[nH]c2c1c(=O)n(CCCN1CCc3ccccc3C1)c1ccccc21 [Example 9, 5-[3-(3,4-Dihydro-1H-isoquinolin-2-yl)-propyl]-3-methyl-1,5-dihydro-pyrazolo[4,3-c]quinolin-4-one]	< 1000 nM
Cc1[nH]nc2c1c(=O)n(CCCN(C)C)c1ccc(Cl)cc21 [Example 16, 8-Chloro-5-(3-dimethylamino-propyl)-3-methyl-2,5-dihydro-pyrazolo[4,3-c]quinolin-4-one]	< 1000 nM
Cc1[nH]nc2c1c(=O)n(CCCN(C)C)c1ccc(Br)cc21 [Example 18, 8-Bromo-5-(3-dimethylamino-propyl)-3-methyl-2,5-dihydro-pyrazolo[4,3-c]quinolin-4-one]	< 1000 nM
Cc1n[nH]c2c1c(=O)n(CCCC(=O)O)c1ccc(Br)cc21 [Example 19, 4-(8-Bromo-3-methyl-4-oxo-1,4-dihydro-pyrazolo[4,3-c]quinolin-5-yl)-butyric acid]	< 1000 nM
Cc1[nH]nc2c1c(=O)n(CCCC#N)c1ccc(Br)cc21 [Example 20, 4-(8-Bromo-3-methyl-4-oxo-2,4-dihydro-pyrazolo[4,3-c]quinolin-5-yl)-butyronitrile]	< 1000 nM
Cc1n[nH]c2c1c(=O)n(CCCC(=O)N1CCN(C(=O)OC(C)(C)C)CC1)c1ccc(Br)cc21 [Example 21, 4-[4-(8-Bromo-3-methyl-4-oxo-1,4-dihydro-pyrazolo[4,3-c]quinolin-5-yl)-butyryl]-piperazine-1-carboxylic acid tert-butyl ester]	< 1000 nM
Cc1n[nH]c2c1c(=O)n(CCCC(=O)NCc1ccc(Cl)cc1)c1ccc(Br)cc21 [Example 22, 4-(8-Bromo-3-methyl-4-oxo-1,4-dihydro-pyrazolo[4,3-c]quinolin-5-yl)-N-(4-chloro-benzyl)-butyramide]	< 1000 nM
Cc1n[nH]c2c1c(=O)n(CC(N)Cc1ccccc1)c1ccccc21 (stereo not drawn) [Example 23, 5-(2-Amino-3-phenyl-propyl)-3-methyl-1,5-dihydro-pyrazolo[4,3-c]quinolin-4-one]	> 20000 nM
Cc1[nH]nc2c1c(=O)[nH]c1c(OCCCN)cccc12 [Example 25, 6-(3-Amino-propoxy)-3-methyl-2,5-dihydro-pyrazolo[4,3-c]quinolin-4-one]	1000 to 20000 nM
Cc1[nH]nc2c1c(=O)n(CCCN)c1ccc(Cl)cc21 [Example 32, 5-(3-Amino-propyl)-8-chloro-3-methyl-1,5-dihydro-pyrazolo[4,3-c]quinolin-4-one]	< 1000 nM
Cc1n[nH]c2c1c(=O)n(CCCCN)c1ccc(Br)cc21 [Example 34, 5-(4-Amino-butyl)-8-bromo-3-methyl-1,5-dihydro-pyrazolo[4,3-c]quinolin-4-one]	< 1000 nM
